Laboratory results: ChEMBL document CHEMBL3507680, “University of Dundee, Gates Library screen for HepG2 cell viability”

Experiment: Human HepG2 cell viability assay in 384 well format
Assay type: toxicity, cell-based
Design: dose 125 nL, time 70.5 hour; cytotoxicity at 70.5 h: concentration not given beside the values
Settings: HepG2 cells, read-out: Inhibition

SMILES	cytotoxicity at 70.5 h [%]
Cc1cc(C)nc(N2CCC(c3cc(CCO)[nH]n3)C2)n1 (configuration not stated)	-12.4
COc1ccc(N2CCN(C(=O)COc3c(C)occc3=O)CC2)cc1	2.1
COc1cccc(CNC(C)C)c1OCc1ccc(C)cc1	-3.04
Cc1ccc(S(=O)(=O)NCc2[nH]ncc2Br)cc1F	-1.86
CS(=O)(=O)CCNCc1ccc(OCc2ccccn2)cc1	0.418
Cc1cccc(-n2cc(CN3CCN(C)[C@@H]4CS(=O)(=O)C[C@@H]43)cn2)c1	-15.9
Cc1noc(C)c1CN(C)CCC(=O)N1CCc2sccc2C1	-4.03
CCOc1ccccc1CSc1nnc(CC2CCS(=O)(=O)C2)n1C (configuration not stated)	-11.4
Cc1cc(C)n(CCC(=O)N2CCCC(n3cncn3)C2)n1 (configuration not stated)	25.8
COCC1COCCC12CCN(S(=O)(=O)c1ccccc1)CC2 (configuration not stated)	0.595
COCc1cc(N2CCc3onc(-c4cccc(OC)c4)c3C2)ncn1	-5.12
CCN1CC(COC(=O)c2cc(Br)ccc2F)CC1=O (configuration not stated)	0.441
O=C(NCc1csc2ccccc12)NCC1(O)CCSC1 (configuration not stated)	-2.26
O=C1CCCN1CC1CCCCN1C(=O)Nc1cccc(F)c1 (configuration not stated)	-14.6
Cc1ccc(N2CCC3(CC2)CCN(C2CCOC2)CC3)nn1 (configuration not stated)	-6.73
c1cnc2c(c1)nc1n2[C@@H](CNCc2nccs2)COC1	-8.24
O=c1[nH][nH]cc1-c1ccnc(NCCN2CCCCC2)n1	30.8
COCCn1ccc2c(C(=O)O)cccc21	-3.92
Oc1cc(-c2ccsc2)nc(C2CCN(Cc3ccncc3)CC2)n1	-3.71

SMILES	cytotoxicity at 70.5 h [%]
Cc1noc(COCC(=O)Nc2cc(C)c(Br)cn2)n1	4.04
COCc1cnc2n1CCN(S(=O)(=O)c1c(C)nn(C)c1C)C2C (configuration not stated)	29
CCc1nsc(N2CCC3(CC2)OCCO3)n1	-8.49
CN(C)S(=O)(=O)N1CCCC(c2cccc(Cc3ccccc3F)n2)C1 (configuration not stated)	11.4
COc1cccc(-c2n[nH]c3c2CN(C(=O)C2=C(C)OCCO2)CC3)c1	-4.06
CN(Cc1nc(N2CCCC2)ncc1-c1ccncc1)C(=O)C(C)(C)C	-2.37
O=C(c1csc(-c2ccc(C(F)(F)F)cc2)n1)N1CCCNCC1	-2.7
O=C(CCNC(=O)c1ccoc1)Nc1ccc(F)cc1F	-10.2
O=C1CCCN1CCCN1CCCC1Cn1cccn1 (configuration not stated)	8.99
Fc1cnc(N2C[C@H]3CCC[C@@]3(COc3ccccn3)C2)nc1	-7.17
O=C(c1ccccn1)N1CCC2(COc3ncccc3S(=O)(=O)N2)C1 (configuration not stated)	-5.57
CCc1c(C)nc2cc(C3CCN(Cc4cccnc4)C3)nn2c1O (configuration not stated)	-5.28
CCOc1ccc(OCCN2CCC(N3CCNC3=O)CC2)cc1	19
NCCC1CN(Cc2cnc3c(-c4ccccc4)cnn3c2)CCO1 (configuration not stated)	-2.68
CCOCC(O)CN1CCN(C(=O)C(C)(C)CC)CC1 (configuration not stated)	18.6
COCC(c1cccc(C(F)(F)F)c1)N(C)C(=O)c1cccnc1 (configuration not stated)	-1.51
CC(C)CN1CCC(C(=O)NCCNC(=O)c2ccccc2)CC1	-4.76
CCC(C)N(Cc1cccnc1)C(=O)c1ccc(OC)cc1O (configuration not stated)	-9.19
COc1cccc2c1OCC(NC(=O)NCCC(N)=O)C2 (configuration not stated)	-7.75

SMILES	cytotoxicity at 70.5 h [%]
CC(C)c1cc(C(=O)N2CCCN(Cc3ccccc3)CC2)n[nH]1	-5.87
CN(Cc1cccnc1)C1COC2(CCN(Cc3nccs3)CC2)C1 (configuration not stated)	-11
O=C(CCC(=O)Nc1nnc(C(F)(F)F)s1)NCC1CCCO1 (configuration not stated)	-0.323
Cc1nnn2c1COCC(CNC(=O)c1ccnnc1)C2 (configuration not stated)	-0.292
Cc1nc(N2CC[C@@H](c3ccc4ccccc4c3)[C@H](O)C2)no1	3.2
N#Cc1cccnc1OC1CCN(C(=O)NCc2ccccc2)CC1	-4.78
COC(=O)[C@H](C)NC(=O)Cn1ccc2ccc(F)cc21	-1.25
Cc1ccc(CN2CCC[C@]3(C(=O)O)CN(CC4CC4)C[C@@H]3C2)s1	-6.54
CN(C)C(=O)N1C[C@@H]2CC[C@H](C1)N(Cc1nnc(C3CC3)o1)C2	-16.8
COC[C@H](C)Nc1cc(C)c2ccc(SC)cc2n1	-8
O=C(CC1CSc2nccc(=O)n21)NCc1cc(-c2ccco2)on1 (configuration not stated)	-11.9
CN(C)c1ccc(C(=O)N2CCN(Cc3cscn3)CC2)cn1	-6.24
CC(c1nc(C2CC2)no1)N1CCN(CCS(C)(=O)=O)CC1 (configuration not stated)	-4.19
Cc1noc(C)c1NC(=O)NC1CCN(C(=O)OC(C)(C)C)CC1	-9.26
COc1ccnc(NCC2CN(C3CC3)CCO2)n1 (configuration not stated)	10.1
CC(=O)N1C[C@@H]2C(=O)N(C)C3(CCN(C(=O)C(C)C)CC3)[C@@H]2C1	-7.63
Clc1snnc1CN1CCN(c2nccs2)CC1	-13.7
CCC(O)CN(CC(=O)NC(=O)NC1CC1)c1ccccc1 (configuration not stated)	-6.3
Cc1ccc(C)c(C(=O)NCC(c2cccn2C)N2CCCCCC2)c1 (configuration not stated)	-1.53
